The results in this text go back to US9586931B2 (Merck Sharp & Dohme Corp., priority 2012, dated 2017).

Molecules are shown by their SMILES.

This assay has as its target T1, recombinant human GST-Syk (Homo sapiens, UniProt P43405).
T1 construct: purchased Carna Biosciences 08-176
Kind of assay: Homogeneous Time-Resolved Fluorescence (HTRF) assay for the recombinant human Syk enzyme. The conditions noted are these: recombinant human GST-Syk 5 pM, ATP 25 μM, 10-dose titration 10 μM to 0.508 nM; read-out: rhSYK Activity IC50. It counts as biochemical. The procedure: Syk inhibition may be determined using the following assay protocol:
Homogeneous Time-Resolved Fluorescence (HTRF) assay for the recombinant human Syk enzyme: A recombinant GST-hSyk fusion protein was used to measure potency of compounds to inhibit human Syk activity. […] Final volume of the reaction was 10 μL. Phosphorylation of the peptide was allowed to proceed for 45 minutes at room temperature. To quench the reaction and detect the phosphorylated product, 2 nM of a Europium-anti-phosphotyrosine antibody (Perkin Elmer #AD0161) and 70 nM SA-APC (Perkin-Elmer #CR130-100) were added together in 15 mM Tris pH 7.5, 40 mM EDTA, 0.01% tween 20. Final volume of the quenching solution was 10 μL. The resulting HTRF signal was measured after 30 minutes on an EnVision (Perkin-Elmer) reader using a time-resolved fluorescence protocol.
(In general: TR-FRET usually uses a lanthanide donor and a delayed reading to cut background.)
The IC50 is the concentration that inhibits the measured activity by half. Regarding `Cc1cc(Nc2cc(C(F)(F)F)ccn2)nc(-c2cn(C(C)C(=O)NCc3cc4ccc(F)cc4[nH]c3=O)nn2)c1` (stereo not shown) [Example 1.43, N-[(7-fluoro-2-oxo-1,2-dihydroquinolin-3-yl)methyl]-2-[4-(4-methyl-6-{[4-(trifluoromethyl)pyridin-2-yl]amino}pyridin-2-yl)-1H-1,2,3-triazol-1-yl]propanamide], the IC50 was 64.2 nM.

`Cc1cc(Nc2nccc(C(F)(F)F)n2)cc(-c2cn(C3COCC3O)nn2)c1` (single isomer, unassigned) [Example 4.4, 4-[4-(3-methyl-5-{[4-(trifluoromethyl)pyrimidin-2-yl]amino}phenyl)-1H-1,2,3-triazol-1-yl]tetrahydrofuran-3-ol]: the IC50 turned out to be 26.1 nM.

As to `Cc1cc(Nc2cc(C(F)(F)F)ccn2)nc(-c2cn(CC(C)(O)CO)nn2)c1` (stereo not shown) [Example 10.14, 2-methyl-3-[4-(4-methyl-6-{[4-(trifluoromethyl)pyridin-2-yl]amino}pyridin-2-yl)-1H-1,2,3-triazol-1-yl]propane-1,2-diol], the concentration for half-maximal inhibition (IC50) amounted to 9.1 nM.

For `Cc1cc(Nc2nccc(C(F)F)n2)cc(-c2cn(CC(C)(O)CO)nn2)c1` (single isomer, unassigned) [Example 21.8, 3-[4-(3-{[4-(difluoromethyl)pyrimidin-2-yl]amino}-5-methylphenyl)-1H-1,2,3-triazol-1-yl]-2-methylpropane-1,2-diol], the IC50 came to 13.1 nM.

Take `Cc1cc(Nc2nccc(C(F)(F)F)n2)cc(-n2cc(C3(O)CCNC(=O)CC3)nn2)c1` (stereo not shown) [Example 11.4, 5-hydroxy-5-[1-(3-methyl-5-{[4-(trifluoromethyl)pyrimidin-2-yl]amino}phenyl)-1H-1,2,3-triazol-4-yl]azepan-2-one]: the IC50 worked out at 161 nM.

Take `Cc1cc(Nc2cc(C(F)(F)F)ccn2)nc(-c2cn(CC3(O)CCOC3)nn2)c1` (racemic) [Example 5.13, 3-{[4-(4-methyl-6-{[4-(trifluoromethyl)pyridin-2-yl]amino}pyridin-2-yl)-1H-1,2,3-triazol-1-yl]methyl}tetrahydrofuran-3-ol]: the IC50 amounted to 11.7 nM.

As to `Cc1cc(Nc2cc(C(F)(F)F)ccn2)nc(-c2cn(C3CCNC(=O)CC3)nn2)c1` (racemic) [Example 11.1, 5-[4-(4-Methyl-6-{[4-(trifluoromethyl)pyridin-2-yl]amino}pyridin-2-yl)-1H-1,2,3-triazol-1-yl]azepan-2-one], the IC50 came out at 21.2 nM.

Turning to `Cc1cc(Nc2nccc(C(F)(F)F)n2)cc(-n2cc([C@]3(O)CC[C@@H](O)CC3)nn2)c1` [Example 15.17, cis-1-[1-(3-methyl-5-{[4-(trifluoromethyl)pyrimidin-2-yl]amino}phenyl)-1H-1,2,3-triazol-4-yl]cyclohexane-1,4-diol], the IC50 was determined as 30 nM.

As for `Cc1cc(Nc2cc(C(F)(F)F)ccn2)nc(-c2cn(CCO)nn2)c1` [Example 5.91, 2-[4-(4-methyl-6-{[4-(trifluoromethyl)pyridin-2-yl]amino}pyridin-2-yl)-1H-1,2,3-triazol-1-yl]ethanol], the IC50 is 8.3 nM.

For `Cc1cc(Nc2cc(C(F)(F)F)ccn2)nc(-c2cn(C3CCC(C(=O)O)C(C)(C)C3)nn2)c1` (single isomer, unassigned) [Example 3.9, 2,2-dimethyl-4-[4-(4-methyl-6-{[4-(trifluoromethyl)pyridin-2-yl]amino}pyridin-2-yl)-1H-1,2,3-triazol-1-yl]cyclohexanecarboxylic acid], the IC50 came to 3 nM.

In the case of `CCOC(=O)C(CC)n1cc(-c2cc(C)cc(Nc3cc(C(F)(F)F)ccn3)n2)nn1` (racemic) [Example 5.28, ethyl 2-[4-(4-methyl-6-{[4-(trifluoromethyl)pyridin-2-yl]amino}pyridin-2-yl)-1H-1,2,3-triazol-1-yl]butanoate], the IC50 was determined as 76.5 nM.

Turning to `C=C(C)Cn1cc(-c2cc(C)cc(Nc3cc(C(F)(F)F)ccn3)n2)nn1` [Example 5.40, 4-methyl-6-[1-(2-methylprop-2-en-1-yl)-1H-1,2,3-triazol-4-yl]-N-[4-(trifluoromethyl)pyridin-2-yl]pyridin-2-amine], the IC50 came out at 28.9 nM.

As for `Cc1cc(Nc2nccc(C(F)F)n2)cc(-c2cn(C3CCCC(C)(O)C3O)nn2)c1` (single isomer, unassigned) [Example 29.2, 3-(4-(3-((4-(Difluoromethyl)pyrimidin-2-yl)amino)-5-methylphenyl)-1H-1,2,3-triazol-1-yl)-1-methylcyclohexane-1,2-diol], the IC50 was 30.7 nM.

Regarding `Cc1cc(Nc2nccc(C(F)(F)F)n2)cc(-c2cn(CC3CCO3)nn2)c1` (racemic) [Example 5.50, N-{3-methyl-5-[1-(oxetan-2-ylmethyl)-1H-1,2,3-triazol-4-yl]phenyl}-4-(trifluoromethyl)pyrimidin-2-amine], the IC50 was determined as 504 nM.

Regarding `Cc1cc(Nc2cc(C(F)(F)F)ccn2)nc(-c2cn(C(C)c3ccc(C(N)=O)cc3)nn2)c1` (stereo not shown) [Example 1.16, 4-{1-[4-(4-methyl-6-{[4-(trifluoromethyl)pyridin-2-yl]amino}pyridin-2-yl)-1H-1,2,3-triazol-1-yl]ethyl}benzamide], the IC50 is 13.3 nM.

As to `Cc1cc(Nc2nccc(C(F)F)n2)cc(-c2cn(C(C)C(C)(O)CO)nn2)c1` (single isomer, unassigned) [Example 30.3, 3-(4-(3-((4-(Difluoromethyl)pyrimidin-2-yl)amino)-5-methylphenyl)-1H-1,2,3-triazol-1-yl)-2-methylbutane-1,2-diol], the concentration for half-maximal inhibition (IC50) turned out to be 8 nM.

For the molecule `Cc1cc(Nc2nccc(C(F)F)n2)cc(-c2cn(CC3CNCCO3)nn2)c1` (single isomer, unassigned) [Example 22.1, 4-(Difluoromethyl)-N-(3-methyl-5-(1-(morpholin-2-ylmethyl)-1H-1,2,3-triazol-4-yl)phenyl) pyrimidin-2-amine], the IC50 worked out at 14.3 nM.

In the case of `CCC(CO)n1cc(-c2cc(C)cc(Nc3cc(C(F)(F)F)ccn3)n2)nn1` (stereo not shown) [Example 13.9, 2-[4-(4-methyl-6-{[4-(trifluoromethyl)pyridin-2-yl]amino}pyridin-2-yl)-1H-1,2,3-triazol-1-yl]butan-1-ol], the IC50 turned out to be 2.9 nM.

Turning to `Cc1cc(Nc2nccc(C(F)(F)F)n2)cc(-c2cn(CCCN)nn2)c1` [Example 5.48, N-{3-[1-(3-aminopropyl)-1H-1,2,3-triazol-4-yl]-5-methylphenyl}-4-(trifluoromethyl)pyrimidin-2-amine], the IC50 amounted to 32.9 nM.

With `Cc1cc(Nc2cc(C(F)(F)F)ccn2)nc(-c2cn(CC3(O)CCOC3)nn2)c1` (single isomer, unassigned) [Example 5.11, 3-{[4-(4-methyl-6-{[4-(trifluoromethyl)pyridin-2-yl]amino}pyridin-2-yl)-1H-1,2,3-triazol-1-yl]methyl}tetrahydrofuran-3-ol], the IC50 turned out to be 21.8 nM.

On to `COC(=O)[C@@H]1CCCN1C(=O)[C@@H](C)n1cc(-c2cc(C)cc(Nc3cc(C(F)(F)F)ccn3)n2)nn1` [Example 1.55, methyl 1-{(2R)-2-[4-(4-methyl-6-{[4-(trifluoromethyl)pyridin-2-yl]amino}pyridin-2-yl)-1H-1,2,3-triazol-1-yl]propanoyl}prolinate], for which the IC50 amounted to 449 nM.

Regarding `Cc1cc(Nc2cc(C(F)(F)F)ccn2)nc(-c2cn(C3CCC(C(N)=O)C(C)(C)C3)nn2)c1` (single isomer, unassigned) [Example 1.6, 2,2-dimethyl-4-[4-(4-methyl-6-{[4-(trifluoromethyl)pyridin-2-yl]amino}pyridin-2-yl)-1H-1,2,3-triazol-1-yl]cyclohexanecarboxamide], the IC50 is 26.6 nM.

With `Cc1cc(Nc2cc(C(F)F)ccn2)nc(-c2cn(C3CCCCC3O)nn2)c1` (single isomer, unassigned) [Example 7.24, 2-[4-(6-{[4-(difluoromethyl)pyridin-2-yl]amino}-4-methylpyridin-2-yl)-1H-1,2,3-triazol-1-yl]cyclohexanol], the IC50 turned out to be 1.2 nM.

Consider `Cc1cc(Nc2cc(C(F)(F)F)ccn2)nc(-c2cn(C[C@H]3CCC(=O)N3)nn2)c1` [Example 5.3, (5R)-5-{[4-(4-methyl-6-{[4-(trifluoromethyl)pyridin-2-yl]amino}pyridin-2-yl)-1H-1,2,3-triazol-1-yl]methyl}pyrrolidin-2-one], for which the IC50 turned out to be 129 nM.

For `Cc1cc(Nc2cc(C(F)(F)F)ccn2)nc(-c2cn(Cc3[nH]cnc3C)nn2)c1` [Example 5.106, 4-methyl-6-{1-[(4-methyl-1H-imidazol-5-yl)methyl]-1H-1,2,3-triazol-4-yl}-N-[4-(trifluoromethyl)pyridin-2-yl]pyridin-2-amine], the IC50 turned out to be 1.6 nM.

With `Cc1cc(Nc2cc(C(F)(F)F)ccn2)nc(-c2cn(C(C)C(=O)N[C@@H](CO)Cc3ccccc3)nn2)c1` (stereo partly drawn) [Example 1.27, N-[(1R)-1-benzyl-2-hydroxyethyl]-2-[4-(4-methyl-6-{[4-(trifluoromethyl)pyridin-2-yl]amino}pyridin-2-yl)-1H-1,2,3-triazol-1-yl]propanamide], the IC50 came to 102 nM.

With `Cc1cc(Nc2nccc(C(F)(F)F)n2)cc(-c2cn(CC(=O)N3[C@H](C)COC[C@@H]3C)nn2)c1` [Example 5.65, N-[3-(1-{2-[(cis)-3,5-dimethylmorpholin-4-yl]-2-oxoethyl}-1H-1,2,3-triazol-4-yl)-5-methylphenyl]-4-(trifluoromethyl)pyrimidin-2-amine], the IC50 amounted to 122 nM.

Take `Cc1cc(Nc2cc(C(F)(F)F)ccn2)nc(-c2cn(CCc3cn[nH]c3)nn2)c1` [Example 5.105, 4-methyl-6-{1-[2-(1H-pyrazol-4-yl)ethyl]-1H-1,2,3-triazol-4-yl}-N-[4-(trifluoromethyl)pyridin-2-yl]pyridin-2-amine]: the IC50 worked out at 2.1 nM.
